Experimental data as given in paper doi:10.1101/2024.08.19.608619, “Discovery of potent SARS-CoV-2 nsp3 macrodomain inhibitors uncovers lack of translation to cellular antiviral response” (bioRxiv, 2024).
pEC50: −log10 of the molar value. ≈ marks a conversion by molar mass, not a printed value.

tested on: HeLa-ACE2 cells; assay: not given; settings: HeLa-ACE2 cytotoxicity

Q: What does the source list for `CCNC(=O)c1cc2c(N[C@@H](c3ccc4c(c3)S(=O)(=O)NCC4)C(C)C)ncnc2[nH]1` [ASAP-0011076]?
A: CC50: > 20 µM; cc10: > 20.0 µM

Q: What does the source list for `CC(C)[C@@H](Nc1ncnc2[nH]c(-c3cnn(C)c3)cc12)c1ccc2c(c1)S(=O)(=O)NCC2` [ASAP-0011192]?
A: CC50: > 20 µM; cc10: > 20.0 µM

same assay, conditions: HeLa-ACE2 cytotoxicity; highest measured response of the dose series

Q: With `CCNC(=O)c1cc2c(N[C@@H](c3ccc4c(c3)S(=O)(=O)NCC4)C(C)C)ncnc2[nH]1` [ASAP-0011076] as the compound, how does the perc_max_measured read?
A: 99.412%

Q: For `CC(C)[C@@H](Nc1ncnc2[nH]c(-c3cnn(C)c3)cc12)c1ccc2c(c1)S(=O)(=O)NCC2` [ASAP-0011192], which perc_max_measured is on record?
A: 100.208%

same assay, conditions: HeLa-ACE2 cytotoxicity; lowest measured response of the dose series

Q: For `CCNC(=O)c1cc2c(N[C@@H](c3ccc4c(c3)S(=O)(=O)NCC4)C(C)C)ncnc2[nH]1` [ASAP-0011076], which perc_min_measured is on record?
A: 92.285%

Q: For `CC(C)[C@@H](Nc1ncnc2[nH]c(-c3cnn(C)c3)cc12)c1ccc2c(c1)S(=O)(=O)NCC2` [ASAP-0011192], which perc_min_measured is on record?
A: 90.498%

tested on: SARS-CoV-2, isolate USA-WA1/2020; assay: microbe, parasite or virus in culture; assay type: cell-based; settings: HeLa-ACE2 SARS-CoV-2 antiviral effect without P-gp inhibitor; maximum measured response of dose series

Q: With `CCNC(=O)c1cc2c(N[C@@H](c3ccc4c(c3)S(=O)(=O)NCC4)C(C)C)ncnc2[nH]1` [ASAP-0011076] as the compound, how does the perc_max_measured read?
A: 101.15%

Q: Which perc_max_measured does the source give for `CC(C)[C@@H](Nc1ncnc2[nH]c(-c3cnn(C)c3)cc12)c1ccc2c(c1)S(=O)(=O)NCC2` [ASAP-0011192] here?
A: 105.419%

same assay, conditions: HeLa-ACE2 SARS-CoV-2 antiviral effect without P-gp inhibitor; minimum measured response of dose series

Q: For `CCNC(=O)c1cc2c(N[C@@H](c3ccc4c(c3)S(=O)(=O)NCC4)C(C)C)ncnc2[nH]1` [ASAP-0011076], which perc_min_measured is on record?
A: 78.382%

Q: With `CC(C)[C@@H](Nc1ncnc2[nH]c(-c3cnn(C)c3)cc12)c1ccc2c(c1)S(=O)(=O)NCC2` [ASAP-0011192] as the compound, how does the perc_min_measured read?
A: 69.993%

same assay, conditions: HeLa-ACE2 SARS-CoV-2 antiviral effect without P-gp inhibitor; read-out: ec50

Q: With `CCNC(=O)c1cc2c(N[C@@H](c3ccc4c(c3)S(=O)(=O)NCC4)C(C)C)ncnc2[nH]1` [ASAP-0011076] as the compound, how does the pEC50 read?
A: < 4.70

Q: With `CC(C)[C@@H](Nc1ncnc2[nH]c(-c3cnn(C)c3)cc12)c1ccc2c(c1)S(=O)(=O)NCC2` [ASAP-0011192] as the compound, how does the pEC50 read?
A: < 4.70

same assay, conditions: HeLa-ACE2 SARS-CoV-2 antiviral effect without P-gp inhibitor; read-out: ec90

Q: For `CCNC(=O)c1cc2c(N[C@@H](c3ccc4c(c3)S(=O)(=O)NCC4)C(C)C)ncnc2[nH]1` [ASAP-0011076], which EC90 is on record?
A: > 20 µM

Q: With `CC(C)[C@@H](Nc1ncnc2[nH]c(-c3cnn(C)c3)cc12)c1ccc2c(c1)S(=O)(=O)NCC2` [ASAP-0011192] as the compound, how does the EC90 read?
A: > 20 µM

tested on: not listed separately; assay: LogD; settings: pH 7.4; In vitro LogD

Q: With `CCNC(=O)c1cc2c(N[C@@H](c3ccc4c(c3)S(=O)(=O)NCC4)C(C)C)ncnc2[nH]1` [ASAP-0011076] as the compound, how does the logd read?
A: 2.6

Q: Which logd does the source give for `CC(C)[C@@H](Nc1ncnc2[nH]c(-c3cnn(C)c3)cc12)c1ccc2c(c1)S(=O)(=O)NCC2` [ASAP-0011192] here?
A: 3.2

tested on: not listed separately; assay: Hepatic microsomal stability, HLM; assay type: in vitro ADME, human; settings: In vitro human liver microsomal stability

Q: Which results are given for `CCNC(=O)c1cc2c(N[C@@H](c3ccc4c(c3)S(=O)(=O)NCC4)C(C)C)ncnc2[nH]1` [ASAP-0011076]?
A: clint: 85.0 µL/min/mg; perc_remaining: 24.0%; t_half: 19.7 min

Q: What does the source list for `CC(C)[C@@H](Nc1ncnc2[nH]c(-c3cnn(C)c3)cc12)c1ccc2c(c1)S(=O)(=O)NCC2` [ASAP-0011192]?
A: clint: 120.0 µL/min/mg; perc_remaining: 13.0%; t_half: 13.9 min

same assay, conditions: In vitro human liver microsomal stability; no cofactor

Q: With `CCNC(=O)c1cc2c(N[C@@H](c3ccc4c(c3)S(=O)(=O)NCC4)C(C)C)ncnc2[nH]1` [ASAP-0011076] as the compound, how does the perc_remaining_no_cofactor read?
A: 107.0%

Q: With `CC(C)[C@@H](Nc1ncnc2[nH]c(-c3cnn(C)c3)cc12)c1ccc2c(c1)S(=O)(=O)NCC2` [ASAP-0011192] as the compound, how does the perc_remaining_no_cofactor read?
A: 98.0%

tested on: not listed separately; assay: In vitro kinetic solubility; settings: In vitro kinetic solubility, ph 7.4

Q: Which solubility_mean does the source give for `CCNC(=O)c1cc2c(N[C@@H](c3ccc4c(c3)S(=O)(=O)NCC4)C(C)C)ncnc2[nH]1` [ASAP-0011076] here?
A: 344 µM (≈ 152 µg/mL)

Q: Which solubility_mean does the source give for `CC(C)[C@@H](Nc1ncnc2[nH]c(-c3cnn(C)c3)cc12)c1ccc2c(c1)S(=O)(=O)NCC2` [ASAP-0011192] here?
A: 105 µM (≈ 47.4 µg/mL)

tested on: not listed separately; assay: in vitro; settings: human, hela-ace2 cells, 50.0

Q: With `CCNC(=O)c1cc2c(N[C@@H](c3ccc4c(c3)S(=O)(=O)NCC4)C(C)C)ncnc2[nH]1` [ASAP-0011076] as the compound, how does the CC50 at 24 h read?
A: > 20 µM

Q: For `CC(C)[C@@H](Nc1ncnc2[nH]c(-c3cnn(C)c3)cc12)c1ccc2c(c1)S(=O)(=O)NCC2` [ASAP-0011192], which CC50 at 24 h is on record?
A: > 20 µM

tested on: not listed separately; assay: Permeability Papp (AB) MDR1/MDCKII; settings: In vitro MDR1-MDCKII permeability, A to B, mean

Q: With `CCNC(=O)c1cc2c(N[C@@H](c3ccc4c(c3)S(=O)(=O)NCC4)C(C)C)ncnc2[nH]1` [ASAP-0011076] as the compound, how does the papp_a_to_b_mean read?
A: 1.96 ×10⁻⁶ cm/s

Q: With `CC(C)[C@@H](Nc1ncnc2[nH]c(-c3cnn(C)c3)cc12)c1ccc2c(c1)S(=O)(=O)NCC2` [ASAP-0011192] as the compound, how does the papp_a_to_b_mean read?
A: 1.58 ×10⁻⁶ cm/s

same assay, conditions: In vitro MDR1-MDCKII permeability, recovery A to B, mean

Q: With `CCNC(=O)c1cc2c(N[C@@H](c3ccc4c(c3)S(=O)(=O)NCC4)C(C)C)ncnc2[nH]1` [ASAP-0011076] as the compound, how does the perc_recovery_a_to_b_mean read?
A: 97.7%

Q: With `CC(C)[C@@H](Nc1ncnc2[nH]c(-c3cnn(C)c3)cc12)c1ccc2c(c1)S(=O)(=O)NCC2` [ASAP-0011192] as the compound, how does the perc_recovery_a_to_b_mean read?
A: 93.2%

tested on: not listed separately; assay: Hepatic microsomal stability, MLM; assay type: in vitro ADME; settings: In vitro mouse liver microsomal stability

Q: With `CCNC(=O)c1cc2c(N[C@@H](c3ccc4c(c3)S(=O)(=O)NCC4)C(C)C)ncnc2[nH]1` [ASAP-0011076] as the compound, how does the clint read?
A: 45.0 µL/min/mg

Q: And the perc_remaining?
A: 49.0%

Q: And the t_half?
A: 36.8 min

Q: With `CC(C)[C@@H](Nc1ncnc2[nH]c(-c3cnn(C)c3)cc12)c1ccc2c(c1)S(=O)(=O)NCC2` [ASAP-0011192] as the compound, how does the clint read?
A: 87.0 µL/min/mg

Q: And the perc_remaining?
A: 23.0%

Q: What about the t_half of the same compound?
A: 19.1 min

same assay, conditions: In vitro mouse liver microsomal stability, no cofactor

Q: With `CCNC(=O)c1cc2c(N[C@@H](c3ccc4c(c3)S(=O)(=O)NCC4)C(C)C)ncnc2[nH]1` [ASAP-0011076] as the compound, how does the perc_remaining_no_cofactor read?
A: 101.0%

Q: Which perc_remaining_no_cofactor does the source give for `CC(C)[C@@H](Nc1ncnc2[nH]c(-c3cnn(C)c3)cc12)c1ccc2c(c1)S(=O)(=O)NCC2` [ASAP-0011192] here?
A: 92.0%
